Measurements: patent US20240025863A1, “SOS1 PROTEIN DEGRADERS, PHARMACEUTICAL COMPOSITIONS THEREOF, AND THEIR THERAPEUTIC APPLICATIONS” (BioTheryX, Inc., priority 2020, published 2024)

Tests used:
Assay type in all cases: cell-based
[1] = test system: Lovo cells (G13D); assay: Cell viability assay (CellTiter-Glo), Lovo cells; conditions: Homo sapiens, 72 h; Lovo cells, 3 days incubation, CellTiter-Glo luminescence; read-out: Inhibition of Cancerous Cells IC50 Lovo (G13D)
Procedure: (§1) H358, H23, SW48, and AsPC-1 cells were cultured in RPMI 1640 media supplemented with 10% fetal bovine serum, streptomycin, and penicillin. Lovo and SW480 cells were cultured in DMEM media supplemented with 10% fetal bovine serum, streptomycin, and penicillin. The cell lines were plated in their respective medium supplemented with 2.5% fetal bovine serum, streptomycin, and penicillin. All cell lines were plated in white walled 96-well plates at 2,000 cells/well or 384-well plates at 500 cells/well, except Lovo, which were plated at 4,000 or 1,000 cells/well, respectively. The cells were incubated in DMSO (control) or a compound for 3 days at 37° C. under 5% CO2. A CELLTITER-GLO® reagent (100 μL) was then added to each well. After a 10 min incubation with shaking, luminescence was measured using an ENVISION® multimode plate reader.

[2] = test system: SW480 cells (G12V); assay: Cell viability assay (CellTiter-Glo), SW480 cells; conditions: Homo sapiens, 72 h; SW480 cells, 3 days incubation, CellTiter-Glo luminescence; read-out: Inhibition of Cancerous Cells IC50 SW480 (G12V)
Procedure: as §1

[3] = test system: SW48 cells (wt); assay: Cell viability assay (CellTiter-Glo), SW48 cells; conditions: Homo sapiens, 72 h; SW48 cells, 3 days incubation, CellTiter-Glo luminescence; read-out: Inhibition of Cancerous Cells IC50 SW48 (wt)
Procedure: as §1

[4] = test system: H358 cells (G12C); assay: Cell viability assay (CellTiter-Glo), H358 cells; conditions: Homo sapiens, NCI-H358, 72 h; H358 cells, 3 days incubation, CellTiter-Glo luminescence; read-out: Inhibition of Cancerous Cells IC50 H358 (G12C)
Procedure: as §1

Structure (SMILES) | IC50 [1] [nM] | IC50 [2] [nM] | IC50 [3] [nM] | IC50 [4] [nM]
COc1cc2c(N[C@H](C)c3cccc(Br)c3)nc(C)nc2cc1OCCCCCCCCC(=O)N1CCC(CN2CCN(c3cc4c(cc3F)C(=O)N(C3CCC(=O)NC3=O)C4=O)CC2)CC1 (stereo partly drawn) [Compound A34, 5-(4-((1-(9-((4-(((R)-1-(3-Bromophenyl)ethyl)amino)-6-methoxy-2-methyl-quinazolin-7-yl)oxy)nonanoyl)piperidin-4-yl)methyl)piperazin-1-yl)-2-(2,6-dioxopiperidin-3-yl)-6-fluoroisoindoline-1,3-dione] | 300 | 640 | 3400 | > 10000
COc1cc2c(N[C@H](C)c3cccc(Br)c3)nc(C)nc2cc1OCCCCCC(=O)NCc1scc2c1CN(C1CCC(=O)NC1=O)C2=O (stereo partly drawn) [Compound A37, 6-((4-(((R)-1-(3-Bromophenyl)ethyl)amino)-6-methoxy-2-methylquinazolin-7-yl)oxy)-N-((5-(2,6-dioxopiperidin-3-yl)-4-oxo-5,6-dihydro-4H-thieno[3,4-c]pyrrol-1-yl)methyl)-hexanamide] | > 10000 | > 10000 | > 10000 | > 10000
COc1cc2c(N[C@H](C)c3cccc(Br)c3)nc(C)nc2cc1OCCCCCCCC(=O)NCc1scc2c1CN(C1CCC(=O)NC1=O)C2=O (stereo partly drawn) [Compound A38, 8-((4-(((R)-1-(3-Bromophenyl)ethyl)amino)-6-methoxy-2-methylquinazolin-7-yl)oxy)-N-((5-(2,6-dioxopiperidin-3-yl)-4-oxo-5,6-dihydro-4H-thieno[3,4-c]pyrrol-1-yl)methyl)-octanamide] | 6100 | 6400 | 7900 | 6300
COc1cc2c(N[C@H](C)c3cccc(Br)c3)nc(C)nc2cc1OCCCCCCCCCC(=O)NCc1scc2c1CN(C1CCC(=O)NC1=O)C2=O (stereo partly drawn) [Compound A39, 10-((4-(((R)-1-(3-Bromophenyl)ethyl)amino)-6-methoxy-2-methylquinazolin-7-yl)oxy)-N-((5-(2,6-dioxopiperidin-3-yl)-4-oxo-5,6-dihydro-4H-thieno[3,4-c]pyrrol-1-yl)-methyl)decanamide] | 790 | 2600 | 210 | 680
COc1cc2c(N[C@H](C)c3cccc(Br)c3)nc(C)nc2cc1OCCCCCCCCN1CCC(c2cc3c(cc2F)C(=O)N(C2CCC(=O)NC2=O)C3)CC1 (stereo partly drawn) [Compound A50, 3-(5-(1-(8-((4-(((R)-1-(3-Bromophenyl)ethyl)amino)-6-methoxy-2-methyl-quinazolin-7-yl)oxy)octyl)piperidin-4-yl)-6-fluoro-1-oxoisoindolin-2-yl)piperidine-2,6-dione] | 430 | 470 | 790 | 960
COc1cc2c(N[C@H](C)c3cccc(Br)c3)nc(C)nc2cc1OCCCCCCCCCCN1CCC(c2cc(F)cc3c2CN(C2CCC(=O)NC2=O)C3=O)CC1 (stereo partly drawn) [Compound A51, 3-(4-(1-(10-((4-(((R)-1-(3-Bromophenyl)ethyl)amino)-6-methoxy-2-methyl-quinazolin-7-yl)oxy)decyl)piperidin-4-yl)-6-fluoro-1-oxoisoindolin-2-yl)piperidine-2,6-dione] | 160 | 640 | 290 | 390
CNCc1ccccc1-c1csc([C@@H](C)Nc2nc(C)nc3cc(OCCCCCCCN4CCC(c5cc(F)cc6c5CN(C5CCC(=O)N(C)C5=O)C6=O)CC4)c(OC)cc23)c1 (stereo partly drawn) [Compound A52, 3-(6-Fluoro-4-(1-(7-((6-methoxy-2-methyl-4-(((R)-1-(4-(2-((methylamino)-methyl)phenyl)thiophen-2-yl)ethyl)amino)quinazolin-7-yl)oxy)heptyl)piperidin-4-yl)-1-oxoisoindolin-2-yl)-1-methylpiperidine-2,6-dione] | 42 | 170 | 170 | 210
CNCc1ccccc1-c1csc([C@@H](C)Nc2nc(C)nc3c(CCCCCCCN4CCC(c5cc(F)cc6c5CN(C5CCC(=O)NC5=O)C6=O)CC4)c(OC)c(OC)cc23)c1 (stereo partly drawn) [Compound A54, 3-(4-(1-(7-(6,7-Dimethoxy-2-methyl-4-(((R)-1-(4-(2-((methylamino)methyl)-phenyl)thiophen-2-yl)ethyl)amino)quinazolin-8-yl)heptyl)piperidin-4-yl)-6-fluoro-1-oxoisoindolin-2-yl)piperidine-2,6-dione] | 130 | 240 | 200 | 360

Further compounds by falling IC50 [1], results first:

IC50 [1] [nM] | IC50 [2] [nM] | IC50 [3] [nM] | IC50 [4] [nM] | Structure (SMILES)
580 | 590 | 940 | 1000 | COc1cc2c(N[C@H](C)c3cccc(C(F)(F)CO)c3)nc(C)nc2cc1OCCCCCCCN1CCC(c2cc3c(cc2F)C(=O)N(C2CCC(=O)NC2=O)C3)CC1 (stereo partly drawn) [Compound A27, 3-(5-(1-(7-((4-(((R)-1-(3-(1,1-Difluoro-2-hydroxyethyl)phenyl)ethyl)amino)-6-methoxy-2-methylquinazolin-7-yl)oxy)heptyl)piperidin-4-yl)-6-fluoro-1-oxoisoindolin-2-yl)-piperidine-2,6-dione]
540 | 2500 | 4100 | > 10000 | COc1cc2c(N[C@H](C)c3cccc(Br)c3)nc(C)nc2cc1OCCCCCCCCCCC(=O)N1CCC(CN2CCN(c3cc4c(cc3F)C(=O)N(C3CCC(=O)NC3=O)C4=O)CC2)CC1 (stereo partly drawn) [Compound A35, 5-(4-((1-(11-((4-(((R)-1-(3-Bromophenyl)ethyl)amino)-6-methoxy-2-methyl-quinazolin-7-yl)oxy)undecanoyl)piperidin-4-yl)methyl)piperazin-1-yl)-2-(2,6-dioxopiperidin-3-yl)-6-fluoroisoindoline-1,3-dione]
420 | 2800 | 670 | > 10000 | COc1cc2c(N[C@H](C)c3cccc(Br)c3)nc(C)nc2cc1OCCCCCCCCCCCCCCCC(=O)NCc1scc2c1CN(C1CCC(=O)NC1=O)C2=O (stereo partly drawn) [Compound A49, 16-((4-(((R)-1-(3-Bromophenyl)ethyl)amino)-6-methoxy-2-methylquinazolin-7-yl)oxy)-N-((5-(2,6-dioxopiperidin-3-yl)-4-oxo-5,6-dihydro-4H-thieno[3,4-c]pyrrol-1-yl)methyl)-hexadecanamide]
360 | 400 | 420 | 570 | CNCc1ccccc1-c1csc([C@H](C)Nc2nc(C)nc3cc(OCCCCCCCN4CCC(c5cc6c(cc5F)C(=O)N(C5CCC(=O)NC5=O)C6)CC4)c(OC)cc23)c1 (stereo partly drawn) [Compound A26, 3-(6-Fluoro-5-(1-(7-((6-methoxy-2-methyl-4-(((S)-1-(4-(2-((methylamino)-methyl)phenyl)thiophen-2-yl)ethyl)amino)quinazolin-7-yl)oxy)heptyl)piperidin-4-yl)-1-oxoisoindolin-2-yl)piperidine-2,6-dione]
290 | 370 | 420 | 510 | CNCc1ccccc1-c1csc([C@@H](C)Nc2nc(C)nc3cc(OCCCCCCCN4CCC(c5cc6c(cc5F)C(=O)N(C5CCC(=O)NC5=O)C6)CC4)c(OC)cc23)c1 (stereo partly drawn) [Compound A25, 3-(6-Fluoro-5-(1-(7-((6-methoxy-2-methyl-4-(((R)-1-(4-(2-((methylamino)-methyl)phenyl)thiophen-2-yl)ethyl)amino)quinazolin-7-yl)oxy)heptyl)piperidin-4-yl)-1-oxoisoindolin-2-yl)piperidine-2,6-dione]
230 | 4900 | 510 | 4500 | COc1cc2c(N[C@H](C)c3cccc(Br)c3)nc(C)nc2cc1OCCCCCN1CCN(C(=O)COc2cc3c(cc2F)C(=O)N(C2CCC(=O)NC2=O)C3)CC1 (stereo partly drawn) [Compound A31, 3-(5-(2-(4-(5-((4-(((R)-1-(3-Bromophenyl)ethyl)amino)-6-methoxy-2-methyl-quinazolin-7-yl)oxy)pentyl)piperazin-1-yl)-2-oxoethoxy)-6-fluoro-1-oxoisoindolin-2-yl)-piperidine-2,6-dione]
180 | 570 | 3300 | > 10000 | COc1cc2c(N[C@H](C)c3cccc(Br)c3)nc(C)nc2cc1OCCCCCCC(=O)N1CCC(CN2CCN(c3cc4c(cc3F)C(=O)N(C3CCC(=O)NC3=O)C4=O)CC2)CC1 (stereo partly drawn) [Compound A33, 5-(4-((1-(7-((4-(((R)-1-(3-Bromophenyl)ethyl)amino)-6-methoxy-2-methyl-quinazolin-7-yl)oxy)heptanoyl)piperidin-4-yl)methyl)piperazin-1-yl)-2-(2,6-dioxopiperidin-3-yl)-6-fluoroisoindoline-1,3-dione]
68 | 170 | 170 | 230 | CNCc1ccccc1-c1csc([C@H](C)Nc2nc(C)nc3cc(OCCCCCCCN4CCC(c5cc(F)cc6c5CN(C5CCC(=O)N(C)C5=O)C6=O)CC4)c(OC)cc23)c1 (stereo partly drawn) [Compound A53, 3-(6-Fluoro-4-(1-(7-((6-methoxy-2-methyl-4-(((S)-1-(4-(2-((methylamino)-methyl)phenyl)thiophen-2-yl)ethyl)amino)quinazolin-7-yl)oxy)heptyl)piperidin-4-yl)-1-oxoisoindolin-2-yl)-1-methylpiperidine-2,6-dione]
